Test results as given in ChEMBL document CHEMBL1121858, “Synthesis and antimalarial activity of 8-[(1-alkyl-4-aminobutyl)amino]-6-methoxy-4-methylquinolines” (1981).
Several values for one entry are separate records, joined by “and”; a condition that tells them apart may be missing. Equal values may be shown once.

Experiments:
Assay type in all cases: functional
[1] = test system: Mus musculus; assay: Mean survival time of Plasmodium berghei infected mice (Mus musculus) after administration of single dose of […] intravenously
[2] = test system: Mus musculus; assay: Mean survival time of Plasmodium berghei infected mice (Mus musculus) after administration of single dose of 80 mg/kg intravenously; details: route intravenous
[3] = test system: Mus musculus; assay: Mean survival time of Plasmodium berghei infected mice (Mus musculus) after administration of single dose of 20 mg/kg intravenously; details: route intravenous
[4] = test system: Mus musculus; assay: Mean survival time of Plasmodium berghei infected mice (Mus musculus) after administration of single dose of 40 mg/kg intravenously; details: route intravenous
[5] = test system: Mus musculus; assay: Mean survival time of Plasmodium berghei infected mice (Mus musculus) after administration of single dose of 640 mg/kg intravenously; details: route intravenous
[6] = test system: Mus musculus; assay: Mean survival time of Plasmodium berghei infected mice (Mus musculus) after administration of single dose of 160 mg/kg intravenously; details: route intravenous

| Compound | MST [1] [days] | MST [2] [days] | MST [3] [days] | MST [4] [days] | MST [5] [days] | MST [6] [days] | MST ([2]; 80 mg/kg) | MST ([3]; 20 mg/kg) | MST ([4]; 40 mg/kg) | MST ([6]; 160 mg/kg) |
| --- | --- | --- | --- | --- | --- | --- | --- | --- | --- | --- |
| CCCC(CCCN)Nc1cc(OC)cc2c(C)ccnc12.O=P(O)(O)O (centres undefined) | 9.1 | 5.7 | 3.1 | 4.1 | 12.3 | 6.3 | – | – | – | – |
| CCC(CCCN)Nc1cc(OC)cc2c(C)ccnc12.O=P(O)(O)O (centres undefined) | 5 | 9.7 | 7.3 | 7.9 | 5 | 11.5 | – | – | – | – |
| COc1cc(NC(C)CCCN)c2ncccc2c1.O=P(O)(O)O.O=P(O)(O)O (centres undefined) [PRIMAQUINE PHOSPHATE] | 5 | – | – | – | 5 | – | 6.4 days and 9.4 days | 2.2 days and 4 days | 4.2 days and 5 days | 7 days and 10.8 days |
| COc1cc(NC(CCCN)C(C)C)c2nccc(C)c2c1.O=P(O)(O)O (centres undefined) | 7.2 | 6.8 | 3.4 | 5.2 | 1 | 7.8 | – | – | – | – |
